# Data published in patent publication US5514654A, “N-acyldipeptides, processes for the preparation thereof and pharmaceutical compositions containing the same” (priority 1990, dated 1996).
# Values joined by “and” are separate entries in the source; they are usually repeats but may differ in a detail not shown here. Equal entries are not always repeated.
# Tests used:
# [1] = Pyrogenous activity according to the method of USP XXII; type: in vivo
# Procedure: The pyrogenous activity was determined according to the method of USP XXII.
# [2] = tested on: splenic lymphocytes B and lymphocytes T; experiment: Determination of the number of lymphocytes B and lymphocytes T; type: in vivo, female HAN-NmRI strain mice; details: 25, 2.5 and 0.25 μg by injection on 3 consecutive days after Brewer's thioglycolate medium i.p.; spleen isolated day 4
# Procedure: (§1) Immunological studies were performed on female HAN-NmRI strain mice of 3-4 weeks, weighing from 18-21 g.
# (§2) In tests 1.1 to 1.5, the animals were first administered the Brewer's thioglycolate medium by i.p. injection, which was followed after 6 hours by the injection of 0.5 ml of a solution containing 25 μg, 2.5 μg and 0.25 μg respectively of N-acetyl-muramyl-L-alanyl-D-isoglutamine (muramyl dipeptide, MDP) or of N-(7-oxooctanoyl)-L-alanyl-D-isoglutamine (compound 1, Example 19). Equal doses were administered to the animals on days 2 and 3. On day 4 the animals were sacrificed and the spleen and the peritoneal macrophages were isolated.
# To the isolated splenic lymphocytes there were added fluorescein isothiocyanate labelled antimouse antibodies (for the determination of lymphocytes B) and anti-Thy 1 monoclonal antibodies (for the determination of lymphocytes T) respectively. After incubation and rinsing with RPMI 1640 medium (Gibco, Great Britain), the lymphocytes were counted by fluorescence microscopy.
# [3] = Toxicity, average lethal dose (LD50); type: in vivo
# peritoneal macrophages [4] = experiment: Activation of peritoneal macrophages with additional in vitro stimulation with PMA (ferricytochrome C reduction); type: in vivo, female HAN-NmRI strain mice; details: for increase of macrophage activity: versus control
# Procedure: as §1, §2
# (§3) The peritoneal cavity of the animals was rinsed with 4 ml of ice-cold RPMI 1640 medium. The cytolysis of erythrocytes was effected with 0.2% NaCl. The remaining cells were washed twice in a cooled centrifuge at 4° C. and 1500 rpm for 5 minutes with ice-cold RPMI 1640 medium. The cells were re-suspended and the concentration was adjusted to 1.5×10^6/ml. The cell suspension was distributed among the flat bottom wells of a microtitration plate (T grade, Nunc, Denmark). After incubating for 2 hours at 37° C., 5% CO2 and 95% humidity, the wells were rinsed with warm RPMI 1640 medium and the adhering macrophages were used for testing.
# (§4) After incubating for 90 minutes at 37° C., 5% CO2 and 95% humidity, the absorbance was measured at the wavelength of 570 nm.
# (§5) The results are shown in Table 2 as the difference in the absorbance of the test sample and of the blank, calculated for 1 mg of cell protein.
# peritoneal macrophages [5] = experiment: Determination of the number of macrophages; type: in vivo, female HAN-NmRI strain mice; details: 25, 2.5 and 0.25 μg on 3 consecutive days; peritoneal cavity washings three days after thioglycolate stimulation
# Procedure: as §1, §2
# The number of macrophages in the peritoneal cavity washings was determined three days after the stimulation with Brewer's thioglycolate medium. The cells were suspended in ice-cold RPMI 1640 medium, to which trypan blue was added, and counted in Neubauer's chamber.
# Fibrosarcoma SA-1 = experiment: Antitumour activity, tumour growth delay; type: in vivo, A/J strain mice; details: for Time needed for the tumour growth to the volume of 150 mm^3, Number of days (± SD) / Growth delay (± SD): 5 doses; for Time needed for the tumour growth to the volume of 150 mm^3, Number of days (± SD): control 5.5 ± 0.8; for Growth delay (± SD): versus control group
# Procedure: The studies were performed on A/J strain mice (Institute Rudjer Boskovic, Zagreb, Yugoslavia) of 8 to 10 weeks. All animals used in the same experiment were of the same sex and age.
# Fibrosarcoma SA-1 was used as the experimental tumour model. Tumorous cells were obtained from the ascitic form of the SA-1 tumour of the syngeneic A/J mouse. They were implanted into animals dorsilaterally by s.c. injection of 5×10^5 live tumour cells. The testing was started after the tumours had grown to a volume of 35 mm^3. The test substance was injected i.p. on five consecutive days in a dose of 2.5 or 25 μg. The growth of the tumours was monitored by measuring the diameters and the thickness of the tumours. The tumour volumes were calculated according to the formula 0.523×a×b×c (a, b and c being the tumour diameters).
# The delay in the growth of each individual tumour was obtained by deducting the relevant time of growth of the tumour in the control group from the time needed for the growth of the tumour to reach the volume of 150 mm^3.
# peritoneal macrophages [6] = experiment: Activation of peritoneal macrophages without additional in vitro stimulation with PMA (ferricytochrome C reduction); type: in vivo, female HAN-NmRI strain mice; details: for increase of macrophage activity: versus control
# Procedure: as §1, §2, §3, §4, §5
# lymphocytes B = experiment: Determination of haemolytic plaques for the assessment of the maturation of lymphocytes B; type: in vivo, female HAN-NmRI strain mice; details: 1 μg/mouse one day after sheep erythrocytes i.p.; control 86±12.7
# Procedure: as §1
# A 1% suspension of sheep erythrocytes (Institute of Microbiology, Faculty of Medicine, Ljubljana, Yugoslavia) in physiological saline was used for the immunisation. First, individual mice were administered 0.2 ml of this suspension by i.p. injection, followed next day by 0.1 ml (1 μg/mouse) of the test substance. The immunisation was completed on the fifth day after the administration of sheep erythrocytes and the mice were sacrificed.
# Their spleens were removed and homogenized in Parker 199 Medium with added amminoacids, streptomycin and sodium carbonate (Torlak, Beograd, Yugoslavia). The lymphocytes were separated on the Ficol Separating Medium (Pharmacia, Uppsala, Sweden). After repeated rinsing with Parker 199 Medium, the cells were resuspended in RPMI 1640 nutrient medium with added 10% of fetal calf serum and streptomycin. To 50 μl of the cell suspension, 450 μl of trypan blue were added and the cells were counted in Neubauer's chamber. The number of lymphocytes per ml of the cell suspension was calculated. […] After the completion of the incubation, the plaques were counted under microscope.
# The number of plaques per 1×10^6 cells was calculated according to the following equations: [formula]
# [7] = tested on: splenic lymphocytes (lymphocytes T); experiment: Blast transformation of lymphocytes by mithogens (concanavalin A, tritium labelled thymidine incorporation); type: in vivo, female HAN-NmRI strain mice; details: for Amount of active thymidine incoporated in lymphocyte DNA (cpm), x ± s.e.m: lymphocytes stimulated in vitro with concanavalin A
# Procedure: as §1, §2
# Isolated splenic lymphocytes were prepared in a concentration of 1×10^6 /ml in the RPMI 1640 medium, to which there were added 10% of foetal calf serum (FCS) (Sera-Lab, Great Britain), 1 ml of 200 mM L-glutamine solution and 1 ml of an antibiotic solution (100 U/ml of penicillin and 100 μg/ml of streptomycin) for 100 ml of complete medium. To each flat bottom well of a microtitration plate (T grade, Nunc, Denmark) 100 μl of the cell suspension were distributed. The cells were stimulated in vitro by adding concanavalin A (con A) (Pharmacia, Sweden) at respective concentrations of 16, 8, and 4 μg/ml. Control lymphocyte cultures were grown in basal medium only. The cells were then incubated at 37° C., 5% CO2 and 95% humidity for 2 days, followed by the addition of tritium labelled thymidine. After 16 hours the samples were prepared for the measurement in a β-counter. The results were expressed as incorporation indexes with respect to the control group of the animals.
# [8] = daily dose 0.25 μg for 3 consecutive days
# [9] = daily dose 2.5 μg for 3 consecutive days
# [10] = daily dose 25 μg for 3 consecutive days
structure (smiles),measurement,setting,value
"CC(=O)CCCCCC(=O)N[C@@H](C)C(=O)N[C@H](CCC(=O)O)C(N)=O [Compound 1, N-(7-oxooctanoyl)-L-alanyl-D-isoglutamine]",pyrogenous activity,[1],did not show any pyrogenous activity
same,number of splenic lymphocytes B,[2],Neither the number of splenic lymphocites B nor of lymphocytes T was altered to a statistically significant extent
same,number of splenic lymphocytes T,[2],Neither the number of splenic lymphocites B nor of lymphocytes T was altered to a statistically significant extent
same,factor by which the immunologically effective dose is lower than LD50,[3]; all described immunological effects,at least 2000 times
same,average lethal dose (LD50),"[3]; i.v. application, male mice",> 250 mg/kg
same,"Difference in absorbancies of the test sample and of the blank per mg of cell protein, x ± s.e.m",peritoneal macrophages [4]; [8],1480 ± 336
same,"Difference in absorbancies of the test sample and of the blank per mg of cell protein, x ± s.e.m",peritoneal macrophages [4]; [9],1630 ± 297
same,"Difference in absorbancies of the test sample and of the blank per mg of cell protein, x ± s.e.m",peritoneal macrophages [4]; [10],2200 ± 177
same,increase of macrophage activity,peritoneal macrophages [4]; dose 0.25 μg (lowest dose),about 50%
same,increase of macrophage activity,peritoneal macrophages [4]; dose 2.5 μg,about 60%
same,increase of macrophage activity,peritoneal macrophages [4]; dose 25 μg,about 120%
same,difference in macrophage activation between muramyl dipeptide and compound 1,"peritoneal macrophages [4]; doses of 2.5 and 25 μg, p>0.05",no statistically significant difference
same,number of peritoneal macrophages,peritoneal macrophages [5],not altered to a statistically significant extent
same,"Time needed for the tumour growth to the volume of 150 mm^3, Number of days (± SD)",Fibrosarcoma SA-1; 2.5 μg daily i.p.,7.3 ± 1.5 days
same,Growth delay (± SD),Fibrosarcoma SA-1; 2.5 μg daily i.p.,1.8 ± 0.5
same,"Time needed for the tumour growth to the volume of 150 mm^3, Number of days (± SD)",Fibrosarcoma SA-1; 25.0 μg daily i.p.,7.0 ± 1.7 days
same,Growth delay (± SD),Fibrosarcoma SA-1; 25.0 μg daily i.p.,1.5 ± 0.5
same,difference in antitumour activity between the higher and the lower dose,Fibrosarcoma SA-1; 25 μg versus 2.5 μg,no statistically significant difference
same,antitumour activity in comparison to the control,Fibrosarcoma SA-1; dose of 2.5 μg and dose of 25 μg,moderate and statistically significant
same,dose dependence of macrophage activation,peritoneal macrophages [6]; 0.25 to 25 μg,dose-dependent
same,"Difference in absorbancies of the test sample and of the blank per mg of cell protein, x ± s.e.m",peritoneal macrophages [6]; daily dose 0.25 μg,273 ± 40
same,"Difference in absorbancies of the test sample and of the blank per mg of cell protein, x ± s.e.m",peritoneal macrophages [6]; daily dose 2.5 μg,387 ± 56
same,"Difference in absorbancies of the test sample and of the blank per mg of cell protein, x ± s.e.m",peritoneal macrophages [6]; daily dose 25 μg,518 ± 20
same,increase of macrophage activity,peritoneal macrophages [6]; dose 0.25 μg,did not increase the activity
same,increase of macrophage activity,peritoneal macrophages [6]; dose 2.5 μg,40%
same,increase of macrophage activity,peritoneal macrophages [6]; dose 25 μg,90%
same,difference in macrophage activation between muramyl dipeptide and compound 1,"peritoneal macrophages [6]; doses of 2.5 and 25 μg, p>0.05",no statistically significant difference
same,"number of plaques (per 1×10^6 cells), x±s.e.m",lymphocytes B,170±39.9 and 245±75.5
same,"Amount of active thymidine incoporated in lymphocyte DNA (cpm), x ± s.e.m",[7]; [8],16860 ± 5210 cpm
same,"Amount of active thymidine incoporated in lymphocyte DNA (cpm), x ± s.e.m",[7]; [9],19080 ± 5470 cpm
same,"Amount of active thymidine incoporated in lymphocyte DNA (cpm), x ± s.e.m",[7]; [10],16380 ± 2950 cpm
same,immunomodulatory effect in lymphocytes T compared with MDP,[7]; dose of 25 μg,statistically greater
same,increase of the blastic activity of lymphocytes T,"[7]; dose of 25 μg, concanavalin A, versus control, p<0.05",about 70%
